Converted amounts (≈) assume the structure as drawn. Where two headings read alike, the source gives them in different places.
How the values were obtained:
Format in all cases: cell-based
[1] = system: Staphylococcus aureus ATCC 25923; assay: Broth microdilution, S. aureus ATCC 25923; conditions: Sa 25923
Experimental: (§1) The antibacterial activity of the obtained thiosemicarbazides and hydrazide–hydrazones was determined by evaluating their ability to inhibit microbial growth in vitro using the broth microdilution method, according to the guidelines of the European Committee on Antimicrobial Susceptibility Testing (EUCAST). The method involved the preparation of microbial suspensions with a standardized density of 0.5 on the McFarland scale (equivalent to 1.5 × 10^8 colony-forming units/mL for bacteria and […] for fungi). A solution of the test substances was then prepared (initial concentration 1000 µg/mL, diluted in sterile Mueller-Hinton broth for bacteria or Mueller-Hinton with 2% glucose for fungi). The test was carried out in 96-well polystyrene flat-bottom plates (Medlab, Poland) with 100 µL of appropriate sterile microbiological medium in each well. The first wells were filled with 200 µL of the test substance, diluted to the initial concentration, and then double-decreasing dilutions were made under aseptic conditions using an automatic pipette. The final step was the addition of a 10-fold diluted microbial suspension of 2 µL. At the same time, the following controls were included: (a) medium control (100 µL of sterile medium without microorganisms added), (b) microbial viability control, (c) test substance control (dilutions without added micro-organisms), (d) positive control of the drug used in the clinic. The plates thus prepared were incubated for 18 ± 2 h at 35 ± 2 °C under conditions optimal for the growth of the test microorganisms. After incubation, the spectrophotometric absorbance at 570 nm in each well of the plate was read. The aim of this part of the study was to determine two parameters: the minimum inhibitory concentration (MIC) and the minimum bactericidal or fungicidal concentration (MBC/MFC) of the test compound. […] The MBC value was determined by adding 5 µL of the contents of each well of the plate to solid sterile MHA or MHA + 2%glc medium for bacteria and fungi, respectively. The area on the plate where 99.9% inhibition of microbial growth was observed indicated the lethal concentration. In addition, the quotient MBC(MFC)/MIC could be determined to assess the nature of the activity of the test substance. If MBC(MFC)/MIC was <4, the test substance was bactericidal/fungicidal, whereas if MBC(MFC)/MIC was ≥4, it was bacteriostatic/fungistatic. Amoxicillin (Glentham Life Sciences, USA) and nystatin (Glentham Life Sciences, USA) were used as the controls for this assay.
(§2) The test was performed either on bacteria, comprising: Gram-positive (Staphylococcus aureus ATCC 25923, Staphylococcus aureus ATCC 6538, Staphylococcus aureus ATCC 43300 methicillin-resistant MRSA, Staphylococcus epidermidis ATCC 12228, Micrococcus luteus ATCC 10240, Bacillus subtilis ATCC 6633, Bacillus cereus ATCC 10876) and Gram-negative (Escherichia coli ATCC 25922, Pseudomonas aeruginosa ATCC 27853, Proteus mirabilis ATCC 12453, Klebsiella pneumoniae ATCC 13883) or yeast (Candida parapsilosis ATCC 22019, Candida glabrata ATCC 90030, Candida krusei ATCC 14243, Candida glabrata ATCC 15126, Candida tropicalis ATCC 1369, Candida auris CDC B11903, Candida lusitaniae ATCC 3449) reference strains from the American Type Culture Collection (ATCC) or the Centers for Disease Control and Prevention (CDC).

[2] = system: Staphylococcus aureus ATCC 6538; assay: Broth microdilution, S. aureus ATCC 6538; conditions: Sa 6538
Experimental: as §1, §2

[3] = system: Staphylococcus aureus ATCC 43300 methicillin-resistant MRSA; assay: Broth microdilution, S. aureus ATCC 43300 MRSA; conditions: Sa 43300 MRSA
Experimental: as §1, §2

[4] = system: Staphylococcus epidermidis ATCC 12228; assay: Broth microdilution, S. epidermidis ATCC 12228; conditions: Se 12228; for MBC/MIC Ratio: <4 bactericidal, ≥4 bacteriostatic
Experimental: as §1, §2

[5] = system: Micrococcus luteus ATCC 10240; assay: Broth microdilution, M. luteus ATCC 10240; conditions: Ml 10240; for MBC/MIC Ratio: <4 bactericidal, ≥4 bacteriostatic
Experimental: as §1, §2

[6] = system: Bacillus subtilis ATCC 6633; assay: Broth microdilution, B. subtilis ATCC 6633; conditions: Bs 6633; for MBC/MIC Ratio: <4 bactericidal, ≥4 bacteriostatic
Experimental: as §1, §2

[7] = system: Bacillus cereus ATCC 10876; assay: Broth microdilution, B. cereus ATCC 10876; conditions: Bc 10876; for MBC/MIC Ratio: <4 bactericidal, ≥4 bacteriostatic
Experimental: as §1, §2

[8] = system: Candida parapsilosis ATCC 22019; assay: Broth microdilution, C. parapsilosis ATCC 22019; conditions: Cp 22019
Experimental: as §1, §2

[9] = system: Candida glabrata ATCC 90030; assay: Broth microdilution, C. glabrata ATCC 90030; conditions: Cg 90030
Experimental: as §1, §2

[10] = system: Candida krusei ATCC 14243; assay: Broth microdilution, C. krusei ATCC 14243; conditions: Ck 14243
Experimental: as §1, §2

[11] = system: Candida glabrata ATCC 15126; assay: Broth microdilution, C. glabrata ATCC 15126; conditions: Cg 15126
Experimental: as §1, §2

[12] = system: Candida tropicalis ATCC 1369; assay: Broth microdilution, C. tropicalis ATCC 1369; conditions: Ct 1369
Experimental: as §1, §2

[13] = system: Candida auris CDC B11903; assay: Broth microdilution, C. auris CDC B11903; conditions: Ca B11903
Experimental: as §1, §2

[14] = system: Candida lusitaniae ATCC 3449; assay: Broth microdilution, C. lusitaniae ATCC 3449; conditions: Cl 3449
Experimental: as §1, §2

SMILES	MIC [1]	MIC [2]	MIC [3]	MIC [4]	MIC [5]	MIC [8]	MIC [9]	MIC [10]	MIC [11]	MIC [12]	MIC [13]	MIC [14]	MBC [1]	MBC [2]	MBC [4]	MBC/MIC Ratio [4]	MBC [5]	MBC/MIC Ratio [5]	MFC [8]	MFC [12]	further results
CC1(C)S[C@@H]2[C@H](NC(=O)[C@H](N)c3ccc(O)cc3)C(=O)N2[C@H]1C(=O)O [AMX, amoxicillin, reference compound]																					MBC ([1]; Staphylococcus aureus, ATCC25923, read-out: MBC): 0.98 µg/mL (≈ 2.68 µM); MIC ([1]; Staphylococcus aureus, ATCC25923, read-out: MIC): 0.98 µg/mL (≈ 2.68 µM); MBC ([2]; Staphylococcus aureus, ATCC6538, read-out: MBC): 0.98 µg/mL (≈ 2.68 µM); MIC ([2]; Staphylococcus aureus, ATCC6538, read-out: MIC): 0.98 µg/mL (≈ 2.68 µM); MBC ([3]; Staphylococcus aureus, read-out: MBC): 31.2 µg/mL (≈ 85.5 µM); MIC ([3]; Staphylococcus aureus, read-out: MIC): 31.2 µg/mL (≈ 85.5 µM); MBC ([4]; Staphylococcus epidermidis, ATCC12228, read-out: MBC): 0.98 µg/mL (≈ 2.68 µM); MIC ([4]; Staphylococcus epidermidis, ATCC12228, read-out: MIC): 0.98 µg/mL (≈ 2.68 µM); MBC ([5]; Micrococcus luteus, ATCC10240, read-out: MBC): 0.98 µg/mL (≈ 2.68 µM); MIC ([5]; Micrococcus luteus, ATCC10240, read-out: MIC): 0.98 µg/mL (≈ 2.68 µM); MBC ([6]; Bacillus subtilis, ATCC6633, read-out: MBC): 125 µg/mL (≈ 342 µM); MIC ([6]; Bacillus subtilis, ATCC6633, read-out: MIC): 125 µg/mL (≈ 342 µM); MBC ([7]; Bacillus cereus, ATCC10876, read-out: MBC): 125 µg/mL (≈ 342 µM); MIC ([7]; Bacillus cereus, ATCC10876, read-out: MIC): 125 µg/mL (≈ 342 µM)
Cn1cc([N+](=O)[O-])nc1C(=O)NNC(=S)Nc1ccc(Cl)cc1 [Compound 5]	62.5 µg/mL (≈ 176 µM)	125 µg/mL (≈ 352 µM)	125 µg/mL (≈ 352 µM)	125 µg/mL (≈ 352 µM)	125 µg/mL (≈ 352 µM)	62.5 µg/mL (≈ 176 µM)	>1000 µg/mL	>1000 µg/mL	>1000 µg/mL	500 µg/mL (≈ 1410 µM)	>1000 µg/mL	>1000 µg/mL	>1000 µg/mL	>1000 µg/mL	125 µg/mL (≈ 352 µM)	1	125 µg/mL (≈ 352 µM)	1	>1000 µg/mL	>1000 µg/mL	MBC [3]: >1000 µg/mL; MBC [6]: 62.5 µg/mL (≈ 176 µM); MIC [6]: 62.5 µg/mL (≈ 176 µM); MBC/MIC Ratio [6]: 1; MBC [7]: 250 µg/mL (≈ 705 µM); MIC [7]: 250 µg/mL (≈ 705 µM); MBC/MIC Ratio [7]: 1
C[C@@H]1[C@H](O)[C@@H](C)/C=C/C=C/CC/C=C/C=C/C=C/C=C/C(O[C@H]2O[C@H](C)[C@@H](O)[C@H](N)[C@@H]2O)CC2O[C@](O)(CC(O)C(O)CCC(O)CC(O)CC(O)CC(=O)O[C@H]1C)CC(O)C2C(=O)O (stereo partly drawn) [NYS, nystatin, reference compound]						12.5 µg/mL (≈ 13.5 µM)	1.56 µg/mL (≈ 1.68 µM)	12.5 µg/mL (≈ 13.5 µM)	1.56 µg/mL (≈ 1.68 µM)	<0.781 µg/mL	6.25 µg/mL (≈ 6.75 µM)	1.56 µg/mL (≈ 1.68 µM)							12.5 µg/mL (≈ 13.5 µM)	0.5 µg/mL (≈ 0.54 µM)	MFC [9]: 3.125 µg/mL (≈ 3.37 µM); MFC [10]: 12.5 µg/mL (≈ 13.5 µM); MFC [11]: 3.125 µg/mL (≈ 3.37 µM); MFC [13]: 15.625 µg/mL (≈ 16.9 µM); MFC [14]: 3.125 µg/mL (≈ 3.37 µM)

Second part, led by results:

MIC [1]	MIC [2]	MIC [3]	MIC [4]	MIC [5]	MIC [8]	MIC [9]	MIC [10]	MIC [11]	MIC [12]	MIC [13]	MIC [14]	SMILES	MBC [1]	MBC [2]	MBC [4]	MBC/MIC Ratio [4]	MBC [5]	MBC/MIC Ratio [5]	MFC [8]	MFC [12]	further results
500 µg/mL (≈ 1560 µM)	1000 µg/mL (≈ 3120 µM)	>1000 µg/mL	1000 µg/mL (≈ 3120 µM)	1000 µg/mL (≈ 3120 µM)	500 µg/mL (≈ 1560 µM)	>1000 µg/mL	>1000 µg/mL	>1000 µg/mL	500 µg/mL (≈ 1560 µM)	>1000 µg/mL	>1000 µg/mL	Cn1cc([N+](=O)[O-])nc1C(=O)NNC(=S)Nc1ccccc1 [Compound 2]	>1000 µg/mL	>1000 µg/mL	1000 µg/mL (≈ 3120 µM)	1	1000 µg/mL (≈ 3120 µM)	1	>1000 µg/mL	>1000 µg/mL	MBC [6]: >1000 µg/mL; MIC [6]: 1000 µg/mL (≈ 3120 µM); MIC [7]: >1000 µg/mL
250 µg/mL (≈ 739 µM)	1000 µg/mL (≈ 2960 µM)	1000 µg/mL (≈ 2960 µM)	500 µg/mL (≈ 1480 µM)	250 µg/mL (≈ 739 µM)	1000 µg/mL (≈ 2960 µM)	>1000 µg/mL	>1000 µg/mL	>1000 µg/mL	250 µg/mL (≈ 739 µM)	>1000 µg/mL	>1000 µg/mL	Cn1cc([N+](=O)[O-])nc1C(=O)NNC(=S)Nc1ccccc1F [Compound 6]	>1000 µg/mL	>1000 µg/mL	500 µg/mL (≈ 1480 µM)	1	250 µg/mL (≈ 739 µM)	1	>1000 µg/mL	>1000 µg/mL	MBC [3]: >1000 µg/mL; MBC [6]: 500 µg/mL (≈ 1480 µM); MIC [6]: 250 µg/mL (≈ 739 µM); MBC/MIC Ratio [6]: 2; MBC [7]: 1000 µg/mL (≈ 2960 µM); MIC [7]: 500 µg/mL (≈ 1480 µM); MBC/MIC Ratio [7]: 2
